Results published in ChEMBL document CHEMBL3885881, “DrugMatrix”.

Species on record: Rattus norvegicus
Assay: DrugMatrix - Regimen: Daily Repeat
Format: toxicity, organism-based, Sprague-Dawley
Design: regimen Daily Repeat, gender Male, age 6-8 weeks
Conditions: in vivo, po, route oral GAVAGE, […]; for ABSOLUTE BASOPHIL / ABSOLUTE EOSINOPHIL / ABSOLUTE LYMPHOCYTE / ABSOLUTE MONOCYTE / ABSOLUTE SEGMENTED NEUTROPHIL / BASOPHIL / EOSINOPHIL / ERYTHROCYTE COUNT / HEMATOCRIT / HEMOGLOBIN / LEUKOCYTE COUNT / LYMPHOCYTE / MEAN CORPUSCULAR HEMOGLOBIN / MEAN CORPUSCULAR HEMOGLOBIN CONCENTRATION / MEAN CORPUSCULAR VOLUME / MONOCYTE / NEUTROPHIL / NUCLEATED RED BLOOD CELLS / PLATELET COUNT: tissue Blood; for ALANINE AMINOTRANSFERASE / ALBUMIN / ALKALINE PHOSPHATASE / ASPARTATE AMINOTRANSFERASE / BLOOD UREA NITROGEN / CARBON DIOXIDE / CHLORIDE / CHOLESTEROL / CREATINE PHOSPHOKINASE / CREATININE / GLUCOSE / LACTATE DEHYDROGENASE / LIPASE / PHOSPHORUS / POTASSIUM / SODIUM / TOTAL BILIRUBIN / TOTAL PROTEIN / URIC ACID: tissue Plasma
[1] = 0 mg/kg, 72 h, dose level Control, time 3 day
[2] = 0 mg/kg, 120 h, dose level Control, time 5 day
[3] = 29 mg/kg, 72 h, dose level Low, time 3 day

## C[C@@H]1CN(c2c(F)c(N)c3c(=O)c(C(=O)O)cn(C4CC4)c3c2F)C[C@H](C)N1 [SPARFLOXACIN]
[1]
  ABSOLUTE BASOPHIL: 0 CELLS/uL
  ABSOLUTE EOSINOPHIL: 70.67 CELLS/uL
  ABSOLUTE LYMPHOCYTE: 12761.5 CELLS/uL
  ABSOLUTE MONOCYTE: 214.17 CELLS/uL
  ABSOLUTE SEGMENTED NEUTROPHIL: 987 CELLS/uL
  BASOPHIL: 0%
  EOSINOPHIL: 0.5%
  ERYTHROCYTE COUNT: 5.61 x10E6/uL
  HEMATOCRIT: 35.22%
  HEMOGLOBIN: 13.57 G/DL
  LEUKOCYTE COUNT: 14.03 x10E3/uL
  LYMPHOCYTE: 91%
  MEAN CORPUSCULAR HEMOGLOBIN: 24.25 pg
  MEAN CORPUSCULAR HEMOGLOBIN CONCENTRATION: 38.52 G/DL
  MEAN CORPUSCULAR VOLUME: 62.9 fL
  MONOCYTE: 1.5%
  NEUTROPHIL: 7%
  NUCLEATED RED BLOOD CELLS: 0 /100WBC
  PLATELET COUNT: 997.5 x10E3/uL
  ALANINE AMINOTRANSFERASE: 66.5 u/L
  ALBUMIN: 3.98 G/DL
  ALKALINE PHOSPHATASE: 350 u/L
  ASPARTATE AMINOTRANSFERASE: 83.83 u/L
  BLOOD UREA NITROGEN: 12.33 mg/dL
  CARBON DIOXIDE: 30.33 mmol/L
  CHLORIDE: 100 MEQ/L
  CHOLESTEROL: 75 mg/dL
  CREATINE PHOSPHOKINASE: 200 u/L
  CREATININE: 0.17 mg/dL
  GLUCOSE: 170 mg/dL
  LACTATE DEHYDROGENASE: 89.33 u/L
  LIPASE: 10.33 u/L
  PHOSPHORUS: 10.88 mg/dL
  POTASSIUM: 6.13 MEQ/L
  SODIUM: 140.53 MEQ/L
  TOTAL BILIRUBIN: 0.2 mg/dL
  TOTAL PROTEIN: 5.67 G/DL
  URIC ACID: 1.6 mg/dL
[2]
  ABSOLUTE BASOPHIL: 0 CELLS/uL
  ABSOLUTE EOSINOPHIL: 0 CELLS/uL
  ABSOLUTE LYMPHOCYTE: 9526.67 CELLS/uL
  ABSOLUTE MONOCYTE: 134.17 CELLS/uL
  ABSOLUTE SEGMENTED NEUTROPHIL: 922.5 CELLS/uL
  BASOPHIL: 0%
  EOSINOPHIL: 0%
  ERYTHROCYTE COUNT: 5.58 x10E6/uL
  HEMATOCRIT: 34.78%
  HEMOGLOBIN: 13.5 G/DL
  LEUKOCYTE COUNT: 10.58 x10E3/uL
  LYMPHOCYTE: 90.17%
  MEAN CORPUSCULAR HEMOGLOBIN: 24.27 pg
  MEAN CORPUSCULAR HEMOGLOBIN CONCENTRATION: 38.82 G/DL
  MEAN CORPUSCULAR VOLUME: 62.48 fL
  MONOCYTE: 1.17%
  NEUTROPHIL: 8.67%
  NUCLEATED RED BLOOD CELLS: 0.17 /100WBC
  PLATELET COUNT: 807.17 x10E3/uL
  ALANINE AMINOTRANSFERASE: 66.83 u/L
  ALBUMIN: 3.73 G/DL
  ALKALINE PHOSPHATASE: 286.17 u/L
  ASPARTATE AMINOTRANSFERASE: 142.33 u/L
  BLOOD UREA NITROGEN: 14.67 mg/dL
  CARBON DIOXIDE: 25.5 mmol/L
  CHLORIDE: 89.17 MEQ/L
  CHOLESTEROL: 75.17 mg/dL
  CREATINE PHOSPHOKINASE: 310.67 u/L
  CREATININE: 0.2 mg/dL
  GLUCOSE: 153 mg/dL
  LACTATE DEHYDROGENASE: 1594 u/L
  LIPASE: 14.83 u/L
  PHOSPHORUS: 11.28 mg/dL
  POTASSIUM: 8.46 MEQ/L
  SODIUM: 126.88 MEQ/L
  TOTAL BILIRUBIN: 0.37 mg/dL
  TOTAL PROTEIN: 5.53 G/DL
  URIC ACID: 1.52 mg/dL
[3]
  ABSOLUTE BASOPHIL: 0 CELLS/uL
  ABSOLUTE EOSINOPHIL: 0 CELLS/uL
  ABSOLUTE LYMPHOCYTE: 14451.67 CELLS/uL
  ABSOLUTE MONOCYTE: 45 CELLS/uL
  ABSOLUTE SEGMENTED NEUTROPHIL: 1203.33 CELLS/uL
  BASOPHIL: 0%
  EOSINOPHIL: 0%
  ERYTHROCYTE COUNT: 5.64 x10E6/uL
  HEMATOCRIT: 35.07%
  HEMOGLOBIN: 13.97 G/DL
  LEUKOCYTE COUNT: 15.7 x10E3/uL
  LYMPHOCYTE: 92%
  MEAN CORPUSCULAR HEMOGLOBIN: 24.77 pg
  MEAN CORPUSCULAR HEMOGLOBIN CONCENTRATION: 39.83 G/DL
  MEAN CORPUSCULAR VOLUME: 62.2 fL
  MONOCYTE: 0.33%
  NEUTROPHIL: 7.67%
  NUCLEATED RED BLOOD CELLS: 0.33 /100WBC
  PLATELET COUNT: 1161 x10E3/uL
  ALANINE AMINOTRANSFERASE: 67.67 u/L
  ALBUMIN: 4 G/DL
  ALKALINE PHOSPHATASE: 395.67 u/L
  ASPARTATE AMINOTRANSFERASE: 96.33 u/L
  BLOOD UREA NITROGEN: 9.67 mg/dL
  CARBON DIOXIDE: 25 mmol/L
  CHLORIDE: 102.33 MEQ/L
  CHOLESTEROL: 76.33 mg/dL
  CREATINE PHOSPHOKINASE: 757 u/L
  CREATININE: 0.16 mg/dL
  GLUCOSE: 172.67 mg/dL
  LACTATE DEHYDROGENASE: 255.33 u/L
  LIPASE: 10.33 u/L
  PHOSPHORUS: 11.53 mg/dL
  POTASSIUM: 6.56 MEQ/L
  SODIUM: 142.23 MEQ/L
  TOTAL BILIRUBIN: 0.13 mg/dL
  TOTAL PROTEIN: 5.83 G/DL
  URIC ACID: 1.93 mg/dL
